Patent US7098204B2 (C.N.R.S., priority 1999, dated 2006)
≈ marks a conversion by molar mass, not a printed value.

What was measured:
protein kinase C ζ = protein kinase C ζ (Homo sapiens, UniProt Q05513); experiment: protein kinase C ζ assay; type: biochemical; conditions: 15 μM ATP
Description: (§1) Kinases activities were assayed in Buffer A or C (unless otherwise stated), at 30° C., at a final ATP concentration of 15 μM. Blank values were subtracted and activities calculated as pmoles of phosphate incorporated for a 10 min. incubation (usually expressed in % of the maximal activity, i.e. without inhibitors). Controls were performed with appropriate dilutions of Me2SO. In some cases phosphorylation of the substrate was assessed by autoradiography after SDS-PAGE. IC50 values were estimated from the dose-response curves. • CDK1/cyclin B was extracted in homogenisation buffer from M phase starfish (Marthasterias glacialis) oocytes and purified by affinity chromatography on p9^CKShs1-Sepharose beads, from which it was eluted by free p9^CKShs1 as described. The kinase activity was assayed in buffer C, with 1 mg histone H1/ml, in the presence of 15 μM [γ-^32P] ATP (3,000 Ci/mmol; 1 mCi/ml) in a final volume of 30 μl. After 10 min. incubation at 30° C., 25 μl aliquots of supernatant were spotted onto 2.5×3 cm pieces of Whatman P81 phosphocellulose paper, and, 20 sec. later, the filters were washed five times (for at least 5 min. each time) in a solution of 10 ml phosphoric acid/liter of water. The wet filters were counted in the presence of 1 ml ACS (Amersham) scintillation fluid. • GSK-3β was either purified from rabbit muscle or expressed in and purified from insect Sf9 cells. […]

cdk4/cyclin D1 = cdk4/cyclin D1 (Homo sapiens, UniProt P11802); experiment: cdk4/cyclin D1 kinase assay; type: biochemical; conditions: 15 μM ATP
Description: as §1

brain, SF-295 = experiment: Human cancer cell line SF-295 proliferation; type: cell-based
c-abl tyrosine kinase = c-abl tyrosine kinase (Abelson murine leukemia virus, UniProt P00521); experiment: c-abl tyrosine kinase assay; type: biochemical; conditions: 15 μM ATP
Description: as §1

CDK1/cyclin B = CDK1/cyclin B kinetic experiments varying ATP and HD; type: biochemical, starfish (Marthasterias glacialis)
Description: Blank values were subtracted and activities calculated as pmoles of phosphate incorporated for a 10 min. incubation (usually expressed in % of the maximal activity, i.e. without inhibitors). Controls were performed with appropriate dilutions of Me2SO. In some cases phosphorylation of the substrate was assessed by autoradiography after SDS-PAGE. IC50 values were estimated from the dose-response curves. • CDK1/cyclin B was extracted in homogenisation buffer from M phase starfish (Marthasterias glacialis) oocytes and purified by affinity chromatography on p9^CKShs1-Sepharose beads, from which it was eluted by free p9^CKShs1 as described. […] ATP (3,000 Ci/mmol; 1 mCi/ml) in a final volume of 30 μl. After 10 min. incubation at 30° C., 25 μl aliquots of supernatant were spotted onto 2.5×3 cm pieces of Whatman P81 phosphocellulose paper, and, 20 sec. later, the filters were washed five times (for at least 5 min. each time) in a solution of 10 ml phosphoric acid/liter of water. The wet filters were counted in the presence of 1 ml ACS (Amersham) scintillation fluid. • GSK-3β was either purified from rabbit muscle or expressed in and purified from insect Sf9 cells. […] ATP (3,000 Ci/mmol; 1 mCi/ml) in a final volume of 30 μl. […]

cdk2/cyclin A = cdk2/cyclin A (Homo sapiens, UniProt P24941); experiment: cdk2/cyclin A kinase assay; type: biochemical; conditions: 15 μM ATP
Description: as §1

protein kinase C γ = protein kinase C γ (Homo sapiens, UniProt P05129); experiment: protein kinase C γ assay; type: biochemical; conditions: 15 μM ATP
Description: as §1

cdk3/cyclin E = cdk3/cyclin E (Homo sapiens, UniProt Q00526); experiment: cdk3/cyclin E kinase assay; type: biochemical; conditions: 15 μM ATP
Description: as §1

[1] = target: T1, Insulin receptor tyrosine Kinase (Homo sapiens, UniProt P06213); experiment: insulin receptor tyrosine kinase assay; type: biochemical; conditions: 15 μM ATP
T1 construct: insulin receptor tyrosine kinase domain (CIRK-41)
Description: as §1

casein kinase 1 = casein kinase 1 assay; type: biochemical; conditions: 15 μM ATP; −(x) = no effect at highest concentration x tested; read-out: IC50 casein kinase 1 (CK 1)
Description: Kinases activities were assayed in Buffer A or C (unless otherwise stated), at 30° C., at a final ATP concentration of 15 μM. Blank values were subtracted and activities calculated as pmoles of phosphate incorporated for a 10 min. incubation (usually expressed in % of the maximal activity, i.e. without inhibitors). Controls were performed with appropriate dilutions of Me2SO. In some cases phosphorylation of the substrate was assessed by autoradiography after SDS-PAGE. IC50 values were estimated from the dose-response curves. • CDK1/cyclin B was extracted in homogenisation buffer from M phase starfish (Marthasterias glacialis) oocytes and purified by affinity chromatography on p9^CKShs1-Sepharose beads, from which it was eluted by free p9^CKShs1 as described. The kinase activity was assayed in buffer C, with 1 mg histone H1/ml, in the presence of 15 μM [γ-^32P] ATP (3,000 Ci/mmol; 1 mCi/ml) in a final volume of 30 μl. After 10 min. incubation at 30° C., 25 μl aliquots of supernatant were spotted onto 2.5×3 cm pieces of Whatman P81 phosphocellulose paper, and, 20 sec. later, the filters were washed five times (for at least 5 min. each time) in a solution of 10 ml phosphoric acid/liter of water. The wet filters were counted in the presence of 1 ml ACS (Amersham) scintillation fluid. • GSK-3β was either purified from rabbit muscle or expressed in and purified from insect Sf9 cells. It was assayed, following a 1/100 dilution in 1 mg BSA/ml 10 mM DTT, with 5 μl 40 μM GS-1 peptide as a substrate, in buffer A, in the presence of 15 μM [γ-^32P] ATP (3,000 Ci/mmol; 1 mCi/ml) in a final volume of 30 μl. […] Its activity was assayed in buffer C as described for CDK1/cyclin B. • CDK2/cyclin A, CDK2/cyclin E, CDK3/cyclin E, CDK4/cyclin D1, CDK6/cyclin D2, His-tagged erk1 and erk2, protein kinase C isoforms, the catalytic subunit of cAMP-dependent protein kinase, cGMP-dependent protein kinase, Myosin light chain kinase, casein kinases 1 & 2, ASK-γ (a plant homologue of GSK-3), insulin receptor tyrosine kinase domain (CIRK-41), c-raf, MAPKK, c-jun N terminal kinase (obtained from Promega), c-src kinase and v-abl kinase were assayed as described. Electrophoresis and Western Blotting

Chain of cdk3/cyclin E (Q00526 whole entry, species assumed): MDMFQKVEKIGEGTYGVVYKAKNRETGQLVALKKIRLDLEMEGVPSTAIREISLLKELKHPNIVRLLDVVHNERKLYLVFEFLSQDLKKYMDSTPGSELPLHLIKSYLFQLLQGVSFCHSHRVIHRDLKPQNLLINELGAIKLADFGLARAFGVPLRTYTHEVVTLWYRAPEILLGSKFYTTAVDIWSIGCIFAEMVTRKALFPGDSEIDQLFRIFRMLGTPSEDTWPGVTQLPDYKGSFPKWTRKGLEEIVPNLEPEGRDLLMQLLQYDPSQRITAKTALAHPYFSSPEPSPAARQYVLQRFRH
Chain of cdk3/cyclin E (P24864 whole entry partner, species assumed): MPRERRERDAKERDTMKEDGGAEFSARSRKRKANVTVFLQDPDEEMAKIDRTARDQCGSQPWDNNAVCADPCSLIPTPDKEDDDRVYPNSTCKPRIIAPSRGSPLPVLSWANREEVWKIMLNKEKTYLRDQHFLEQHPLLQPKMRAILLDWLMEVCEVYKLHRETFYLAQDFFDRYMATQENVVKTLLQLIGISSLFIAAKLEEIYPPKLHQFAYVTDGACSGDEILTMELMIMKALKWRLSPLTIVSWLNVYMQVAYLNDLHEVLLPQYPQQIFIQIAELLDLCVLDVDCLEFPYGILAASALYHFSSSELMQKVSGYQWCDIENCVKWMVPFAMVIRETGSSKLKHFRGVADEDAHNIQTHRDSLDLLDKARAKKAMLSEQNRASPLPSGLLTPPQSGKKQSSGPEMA
Chain of cdk4/cyclin D1 (P11802 whole entry, species assumed): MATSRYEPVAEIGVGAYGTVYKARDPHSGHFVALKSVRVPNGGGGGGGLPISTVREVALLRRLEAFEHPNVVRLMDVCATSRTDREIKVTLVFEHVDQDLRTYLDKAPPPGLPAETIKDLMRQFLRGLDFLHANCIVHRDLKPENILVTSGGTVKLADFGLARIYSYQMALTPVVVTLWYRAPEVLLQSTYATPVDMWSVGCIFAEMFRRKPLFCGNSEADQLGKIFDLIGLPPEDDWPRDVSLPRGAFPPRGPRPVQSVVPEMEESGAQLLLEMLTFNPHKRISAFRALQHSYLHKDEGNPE
Chain of cdk4/cyclin D1 (P24385 whole entry partner, species assumed): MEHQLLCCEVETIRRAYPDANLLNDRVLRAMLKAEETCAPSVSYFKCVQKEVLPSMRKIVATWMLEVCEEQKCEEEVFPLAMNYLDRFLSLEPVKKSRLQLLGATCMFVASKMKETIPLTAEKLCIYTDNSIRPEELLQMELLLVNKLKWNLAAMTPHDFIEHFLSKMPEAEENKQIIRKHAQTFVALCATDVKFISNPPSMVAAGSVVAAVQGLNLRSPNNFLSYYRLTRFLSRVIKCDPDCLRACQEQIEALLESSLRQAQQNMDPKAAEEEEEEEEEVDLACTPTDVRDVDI
Chain of c-abl tyrosine kinase (P00521 whole entry): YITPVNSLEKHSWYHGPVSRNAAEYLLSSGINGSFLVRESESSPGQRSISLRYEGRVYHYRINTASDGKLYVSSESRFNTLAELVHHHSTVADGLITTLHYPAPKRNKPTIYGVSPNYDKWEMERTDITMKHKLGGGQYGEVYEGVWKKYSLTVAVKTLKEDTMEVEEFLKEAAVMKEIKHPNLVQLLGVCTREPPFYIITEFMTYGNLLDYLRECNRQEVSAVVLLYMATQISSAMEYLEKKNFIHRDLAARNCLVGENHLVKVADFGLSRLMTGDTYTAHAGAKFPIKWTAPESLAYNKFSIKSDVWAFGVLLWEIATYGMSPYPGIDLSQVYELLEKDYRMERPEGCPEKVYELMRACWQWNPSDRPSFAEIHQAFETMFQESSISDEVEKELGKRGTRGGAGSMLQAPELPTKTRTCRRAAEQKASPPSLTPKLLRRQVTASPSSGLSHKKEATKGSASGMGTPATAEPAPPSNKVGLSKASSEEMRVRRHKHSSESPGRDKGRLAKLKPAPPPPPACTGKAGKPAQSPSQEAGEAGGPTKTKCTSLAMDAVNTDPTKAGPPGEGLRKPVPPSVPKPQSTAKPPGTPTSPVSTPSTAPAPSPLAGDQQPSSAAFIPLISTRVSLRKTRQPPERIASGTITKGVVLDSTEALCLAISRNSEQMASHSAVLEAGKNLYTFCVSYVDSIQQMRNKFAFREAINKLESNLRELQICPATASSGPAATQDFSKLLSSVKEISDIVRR
Chain of protein kinase C ζ (Q05513 whole entry): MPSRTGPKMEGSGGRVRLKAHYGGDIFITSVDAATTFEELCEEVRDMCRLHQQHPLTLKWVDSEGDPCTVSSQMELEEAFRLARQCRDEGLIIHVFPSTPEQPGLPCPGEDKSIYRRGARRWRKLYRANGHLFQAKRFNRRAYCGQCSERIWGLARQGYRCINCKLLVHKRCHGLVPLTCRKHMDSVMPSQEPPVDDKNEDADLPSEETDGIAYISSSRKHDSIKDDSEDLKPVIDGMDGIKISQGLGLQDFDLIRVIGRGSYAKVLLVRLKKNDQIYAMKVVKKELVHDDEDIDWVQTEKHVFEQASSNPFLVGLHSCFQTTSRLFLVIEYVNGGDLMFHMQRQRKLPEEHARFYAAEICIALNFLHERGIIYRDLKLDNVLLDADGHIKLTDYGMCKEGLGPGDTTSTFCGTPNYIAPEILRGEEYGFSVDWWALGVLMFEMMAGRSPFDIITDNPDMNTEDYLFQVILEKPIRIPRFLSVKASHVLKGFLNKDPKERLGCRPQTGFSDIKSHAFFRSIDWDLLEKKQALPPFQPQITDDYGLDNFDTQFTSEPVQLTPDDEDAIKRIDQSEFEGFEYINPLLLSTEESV
T1 sequence (P06213 1023-1298 limits assumed): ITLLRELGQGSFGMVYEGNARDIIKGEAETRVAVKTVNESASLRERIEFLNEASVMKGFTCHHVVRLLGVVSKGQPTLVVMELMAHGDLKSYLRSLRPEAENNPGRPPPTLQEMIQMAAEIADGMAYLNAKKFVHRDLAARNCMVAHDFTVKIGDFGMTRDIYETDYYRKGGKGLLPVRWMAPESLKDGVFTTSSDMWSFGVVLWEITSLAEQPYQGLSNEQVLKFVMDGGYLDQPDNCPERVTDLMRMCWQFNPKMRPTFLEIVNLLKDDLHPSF

NC1=NC(=O)C(=C2CCNC(=O)c3[nH]c(Br)cc32)N1 [hymenialdisine, 4-(2-amino-4-oxo-2-imidazolin-5-ylidene)-2-bromo-4,5,6,7-tetrahydropyrrolo (2,3-c) azepine-8-one]
IC50 (protein kinase C ζ): 60000 nM
IC50 (cdk4/cyclin D1): 600 nM
IC50 (brain, SF-295): 38.9 µg/mL (≈ 120 µM)
IC50 (c-abl tyrosine kinase): 4000 nM
Ki (CDK1/cyclin B; ATP 0.05 to 0.25 mM, histone H1 0.7 mg/ml, read-out: apparent inhibition constant (Ki)): 50 nM
mechanism of inhibition (CDK1/cyclin B; double-reciprocal plots): competitive inhibitor for ATP
IC50 (cdk2/cyclin A): 70 nM
IC50 (protein kinase C γ): 500 nM
IC50 (cdk3/cyclin E): 100 nM
IC50 [1]: 75000 nM
IC50 (casein kinase 1): 35 nM
